Values of other authors in patent US20040063806A1, “Antimicrobial polyalphaolefin composition” (priority 2000, published 2004).
Where two headings read alike, the source gives them in different places.

Key:
Haemophilius influenca = Haemophilius influenca ATCC 33391, medium B-A
Brucella abortus = Brucella abortus NCTC 8226, medium BR.A.A.
Proteus mirabilis = Proteus mirabilis ATCC 14153, medium M-H
[1] = system: Bacillus cereus var. mycoides; details: origin A, medium NA
Loefferella mallei = Loefferella mallei NCTC 9674, medium NA
Microsporum canis = Microsporum canis ATCC 10214, medium SMA
Sarcina lutee = Sarcina lutee NCTC 196, medium BHI-A
Klebsiella edwardsii = Klebsiella edwardsii NCTC 7242, medium NA
Streptococcus coelicolor = details: origin A, medium BHI-A
Serratia marcescens = Serratia marcescens ATCC 14756, medium M-H
Candida utilis = details: origin A, medium SMA
Brucella intermedia = details: origin A, medium BR.A.A.
Alcaligenes faecalis = details: origin A, medium NA

**Q.** With Oc1cc(Cl)ccc1Oc1ccc(Cl)cc1Cl [IRGAGUARD B 1000, 2,4,4′-trichloro-2′-hydroxydiphenyl ether] as the molecule, how does the Microbiostatic effect (Haemophilius influenca) read?
**A.** Its Microbiostatic effect is 2.0 ppm.

**Q.** What about the Microbiostatic effect (Brucella abortus) of the same molecule?
**A.** The Microbiostatic effect was 0.1 ppm.

**Q.** What about the Microbiostatic effect (Shigella flexneri; Shigella flexneri NCTC 8192, medium NA) of the same molecule?
**A.** Its Microbiostatic effect is 0.3 ppm.

**Q.** What about the Microbiostatic effect (Shigella flexneri; Shigella flexneri NCTC 8204, medium NA) of the same molecule?
**A.** Its Microbiostatic effect is 0.1 ppm.

**Q.** What about the Microbiostatic effect (Proteus mirabilis) of the same molecule?
**A.** The Microbiostatic effect was 0.5 ppm.

**Q.** And the Microbiostatic effect [1]?
**A.** The Microbiostatic effect was 3.0 ppm.

**Q.** What about the Microbiostatic effect (Loefferella mallei) of the same molecule?
**A.** Its Microbiostatic effect is 0.3 ppm.

**Q.** And the Microbiostatic effect (Microsporum canis)?
**A.** Its Microbiostatic effect is 3 ppm.

**Q.** What about the Microbiostatic effect (Sarcina lutee) of the same molecule?
**A.** Its Microbiostatic effect is 3.0 ppm.

**Q.** And the Microbiostatic effect (Klebsiella edwardsii)?
**A.** Its Microbiostatic effect is 0.3 ppm.

**Q.** What about the Microbiostatic effect (Escherichia coli; Escheria coli ATCC 8196, medium M-H) of the same molecule?
**A.** Its Microbiostatic effect is 0.02 ppm.

**Q.** And the Microbiostatic effect (Escherichia coli; Escherichia coli ATCC 4388, medium M-H, Serotype 0157)?
**A.** The Microbiostatic effect was 0.1 ppm.

**Q.** And the Microbiostatic effect (Escherichia coli; Escherichia coli ATCC 9661, medium NA)?
**A.** Its Microbiostatic effect is 0.3 ppm.

**Q.** And the Microbiostatic effect (Escherichia coli; Escherichia coli ATCC 10536, medium BHI)?
**A.** Its Microbiostatic effect is 0.5 ppm.

**Q.** And the Microbiostatic effect (Escherichia coli; Escherichia coli ATCC 11229, medium M-H)?
**A.** The Microbiostatic effect was 0.5 ppm.

**Q.** And the Microbiostatic effect (Escherichia coli; Escherichia coli ATCC 25922, medium M-H)?
**A.** Its Microbiostatic effect is 0.25 ppm.

**Q.** And the Microbiostatic effect (Escherichia coli; Escherichia coli ATCC 35150, medium M-H, Serotype 0157)?
**A.** Its Microbiostatic effect is 0.2 ppm.

**Q.** What about the Microbiostatic effect (Escherichia coli; Escherichia coli ATCC 43889, medium M-H, Serotype 0157) of the same molecule?
**A.** The Microbiostatic effect was 0.2 ppm.

**Q.** What about the Microbiostatic effect (Escherichia coli; Escherichia coli ATCC 43890, medium M-H, Serotype 0157) of the same molecule?
**A.** The Microbiostatic effect was 0.2 ppm.

**Q.** What about the Microbiostatic effect (Escherichia coli; Escherichia coli NCTC 9663, medium NA) of the same molecule?
**A.** Its Microbiostatic effect is 0.3 ppm.

**Q.** What about the Microbiostatic effect (Escherichia coli; Escherichia coli NCTC 11186, medium M-H, Tobramicin resistant) of the same molecule?
**A.** Its Microbiostatic effect is 0.5 ppm.

**Q.** And the Microbiostatic effect (Streptococcus coelicolor)?
**A.** The Microbiostatic effect was 1.0 ppm.

**Q.** What about the Microbiostatic effect (Salmonella typhi; Salmonella typhi NCTC 786, medium NA) of the same molecule?
**A.** Its Microbiostatic effect is 0.3 ppm.

**Q.** And the Microbiostatic effect (Salmonella typhi; Salmonella typhi NCTC 8384, medium NA)?
**A.** The Microbiostatic effect was 0.3 ppm.

**Q.** And the Microbiostatic effect (Serratia marcescens)?
**A.** Its Microbiostatic effect is greater than 512 ppm.

**Q.** What about the Microbiostatic effect (Candida utilis) of the same molecule?
**A.** Its Microbiostatic effect is 33 ppm.

**Q.** And the Microbiostatic effect (Brucella intermedia)?
**A.** Its Microbiostatic effect is 0.1 ppm.

**Q.** And the Microbiostatic effect (Proteus vulgaris; Proteus vulgaris NCTC 4636, medium NA)?
**A.** Its Microbiostatic effect is 0.3 ppm.

**Q.** And the Microbiostatic effect (Proteus vulgaris; Proteus vulgaris NCTC 8313, medium NA)?
**A.** The Microbiostatic effect was 0.1 ppm.

**Q.** What about the Microbiostatic effect (Alcaligenes faecalis) of the same molecule?
**A.** Its Microbiostatic effect is greater than 100 ppm.
